According to PMC9025336 (Antibiotics, 2022):
Values after ≈ are worked out from the molar mass of the structure shown. Where two headings read alike, the source gives them in different places. Peptide text beside a SMILES is read from it. * marks the point of attachment. Orn(α-tetramethylguanidino) = CN(C)C(=N[C@@H](CCCN)C(=O)*)N(C)C

What was measured:
[1] = system: 70S ribosome, ribosomal binding site of Api88; assay: Fluorescence polarization competition with cf-Api88; parameters: species or system Escherichia coli; conditions: Figure S3, twice in triplicate
Experimental: Ki was determined for ribosome extracts using cf-labeled and unlabeled peptides in ribosome preparation buffer. Black 384-well plates were prepared as described above. Unlabeled peptides or antibiotics (20 µL, 656 µmol/L) were added and 2-fold serially diluted in 23 wells in ribosome preparation buffer. A ribosome solution was prepared by adjusting the ribosome concentration to ~90% of the upper Kd plateau obtained for the cf-labeled peptide to be studied and added to each well (10 µL). After incubation (28 ± 1 °C, 90 min), the cf-labeled peptide (10 µL, 80 nmol/L) was added and incubated (28 ± 1 °C, 90 min). The fluorescence polarization was measured on a […] microplate reader in the top read position (λexc = 485 nm, λem = 535 nm) in triplicate on at least two different days. Data were fitted to a nonlinear, dose–response logistical transition equation [y= y0 + a/(1 + (x/x0)b)] using the Levenberg–Marquardt algorithm, with the half-maximal inhibition constants (IC50) represented by the x0 coefficients (GraphPad Prism for Windows v. 5.02, San Diego, CA, USA). Inhibition constants, Ki, were calculated as described by Mathias and Jung.
Pept ide Concent r at ion [ nM]
Figure S3. Fluorescence polarization assay testing Api88 an d Api137 in competition with cf-Api88 and cf-Api137, respectively, for the corresponding ribosomal binding sites. Experiments were done twice in triplicates. […]

[2] = system: E. coli BL21 (DE3) RIL ribosome extract; conditions: values published for E. coli BL21 (DE3) RIL ribosome extract; read-out: Kd (printed in column Ros); cited from earlier work
Source text: Table 2 Antibacterial activities, dissociation (Kd), and inhibition constants (Ki) of ribosome binding obtained for all PrAMPs included in the current study for E. coli strains BW25113 (BW) and Rosetta DE3 pLysS (Ros). | column: Kd [µmol/L] ** / Ros

[3] = system: E. coli BL21 (DE3) RIL ribosome extract; conditions: values published for E. coli BL21 (DE3) RIL ribosome extract; read-out: Ki, cf-Api137; cited from earlier work
[4] = system: E. coli BL21 (DE3) RIL ribosome extract; conditions: values published for E. coli BL21 (DE3) RIL ribosome extract; read-out: Ki, cf-Onc112; cited from earlier work
Source text: Table 2 Antibacterial activities, dissociation (Kd), and inhibition constants (Ki) of ribosome binding obtained for all PrAMPs included in the current study for E. coli strains BW25113 (BW) and Rosetta DE3 pLysS (Ros). | column: Ki [µmol/L] *** / cf-Onc112

[5] = system: E. coli BL21 (DE3) sbmA::Tn10^Cm + psbmA_A31G/G219T; format: cell-based, Escherichia coli
Experimental: (§1) The minimal inhibitory concentrations (MIC) were determined at least twice in triplicate using a liquid broth microdilution assay in sterile 96-well plates and a total volume of 100 μL per well. Aqueous peptide solutions were serially 2-fold diluted in 25% MHBII or 33% TSB medium in a volume of 50 µL. An overnight culture was diluted in 25% MHBII or 33% TSB medium to 1.5 × 10^7 CFU/mL, and an aliquot of 50 μL was added to each well. The final cell count in each well was 7.5 × 10^6 CFU/mL. The plates were incubated at 37 °C for 20 ± 2 h. The turbidity of each well was measured at a wavelength of 600 nm. The MIC was defined as the lowest peptide concentration where the turbidity was identical to medium only.
(§2) E. coli strain BL21(DE3) was randomly mutagenized by Tn10 insertion using the lambda phage lysate λNK1324 carrying a chloramphenicol resistance and grown on LB agar plates in the presence of chloramphenicol (15 µg/mL) at 30 °C overnight. The resistant colonies were transferred to 25% MHBII agar plates containing Api137 (32 or 64 µg/mL) and incubated again at 37 °C overnight. Genomic DNA was isolated by a Monarch® Genomic DNA purification kit (New England Biolabs, Frankfurt am Main, Germany) from the presumed double-resistant strains, and the sequences flanking the transposon insertion were determined by arbitrary primed PCR using arbitrary primer ARB6 and Tn10 transposon-specific primer IS10-R complementary to the IS10 element of Tn10 transposon. The first round of amplification included six cycles of denaturation (95 °C, 30 s), annealing (30 °C, 30 s), and extension (72 °C, 90 s), followed by 30 cycles of denaturation (95 °C, 30 s), annealing (45°C, 30 s), and extension (72 °C, 2 min), as well as a final extension (72 °C, 6 min). The second round of amplification used arbitrary primer ARB2 and primer IS10-R. The PCR consisted of 30 cycles of denaturation (95 °C, 30 s), annealing (52 °C, 30 s), and extension (72 °C, 2 min), followed by a final extension step (72 °C, 6 min). PCR products were purified with the NucleoSpin® Gel and a PCR cleanup kit (Macherey-Nagel, Düren, Germany) and sequenced using primer IS10-R (Eurofins MWG Operon, Ebersberg, Germany), and the corresponding protein was identified in a sequence database (UniProt and NCBI, 2021).

[6] = system: E. coli BL21 (DE3) sbmA::Tn10^Cm + psbmA; format: cell-based, Escherichia coli
Experimental: as §1, §2

[7] = system: E. coli BW25113 ΔsbmA +psbmA; format: cell-based, Escherichia coli
Experimental: as §1

E. coli BW25113 ΔsbmA = format: cell-based, Escherichia coli
Experimental: as §1

[8] = E. coli Rosetta pLysS lysate, protein ~0.5 g/L; 37 °C; RP-HPLC UV 214 nm
Experimental: (§3) Peptides (7.5 µg) were mixed with lysates of E. coli Rosetta pLysS or E. coli BW25113 (protein concentration ~0.5 g/L) and incubated on an orbital shaker (37 °C, 750 rpm). After 0, 4, 8 and 24 h, aliquots were taken in duplicate or triplicate, and trichloroacetic acid was added to achieve a final concentration of 3% (v/v). Samples were incubated on ice (10 min) and centrifuged (13,000× g, 5 min). The supernatant was neutralized with aqueous sodium hydroxide (1 mol/L) and stored at −20 °C. Samples were separated on an ACQUITY arc system (Waters GmbH, Eschborn, Germany) using a Jupiter C18 column (ID: 2 mm). Elution was achieved using a linear aqueous acetonitrile gradient containing 0.1% (v/v) formic acid. The absorbance was recorded on a 2489 UV/VIS detector at 214 nm (Waters GmbH), and mass spectra were acquired online with an ion trap mass spectrometer equipped with an electrospray ionization source (ESI-IT-MS, Esquire HCT, Bruker Daltonics, Billerica, MA, USA). Peptide recoveries and the corresponding metabolites were calculated based on the peak areas (UV) of the initial peptide peak area at 0 min.

in vitro = conditions: E. coli BW25113 lysate
Experimental: as §3

[9] = 25% MHBII containing IPTG (0.1 mmol/L)
[10] = 33% TSB containing IPTG (0.1 mmol/L)

CC[C@H](C)[C@H](NC(=O)[C@H](Cc1ccc(O)cc1)NC(=O)[C@@H](NC(=O)[C@@H]1CCCN1C(=O)[C@H](CCCNC(=N)N)NC(=O)[C@H](CC(N)=O)NC(=O)[C@H](CC(N)=O)NC(=O)[C@H](CCCN)N=C(N(C)C)N(C)C)C(C)C)C(=O)N1CCC[C@H]1C(=O)N[C@@H](CCCNC(=N)N)C(=O)N1CCC[C@H]1C(=O)N[C@@H](CCCNC(=N)N)C(=O)N1CCC[C@H]1C(=O)N1CCC[C@H]1C(=O)N[C@@H](Cc1c[nH]cn1)C(=O)N1CCC[C@H]1C(=O)N[C@@H](CCCNC(=N)N)C(=O)N[C@@H](CC(C)C)C(N)=O [Api88] ({Orn(α-tetramethylguanidino)}-NNRPVYIPRPRPPHPRL-NH2)
inhibition of the binding of cf-labeled Api88 [1]: did not inhibit | Kd [2]: 1220 nM | Ki [3]: 180 nM | Ki [4]: 110 nM

CC[C@H](C)[C@H](NC(=O)[C@H](Cc1ccc(O)cc1)NC(=O)[C@@H](NC(=O)[C@@H]1CCCN1C(=O)[C@H](CCCNC(=N)N)NC(=O)[C@H](CC(N)=O)NC(=O)[C@H](CC(N)=O)NC(=O)[C@H](CCCN)N=C(N(C)C)N(C)C)C(C)C)C(=O)N1CCC[C@H]1C(=O)N[C@@H](CCCNC(=N)N)C(=O)N1CCC[C@H]1C(=O)N[C@@H](CCCNC(=N)N)C(=O)N1CCC[C@H]1C(=O)N1CCC[C@H]1C(=O)N[C@@H](Cc1c[nH]cn1)C(=O)N1CCC[C@H]1C(=O)N[C@@H](CCCNC(=N)N)C(=O)N[C@@H](CC(C)C)C(=O)O [Api137] ({Orn(α-tetramethylguanidino)}-NNRPVYIPRPRPPHPRL-OH)
MIC, 25% MHBII [5, 9]: 4 µg/mL (≈ 1.75 µM) | MIC, 33% TSB [5, 10]: 8 µg/mL (≈ 3.49 µM) | MIC, 25% MHBII [6, 9]: 8 µg/mL (≈ 3.49 µM) | MIC, 33% TSB [6, 10]: 8 µg/mL (≈ 3.49 µM) | MIC, 25% MHBII [7, 9]: 4 µg/mL (≈ 1.75 µM) | MIC, 33% TSB [7, 10]: 8 µg/mL (≈ 3.49 µM) | MIC, 25% MHBII (E. coli BW25113 ΔsbmA; [9]): 8 µg/mL (≈ 3.49 µM) | MIC, 33% TSB (E. coli BW25113 ΔsbmA; [10]): 64 µg/mL (≈ 27.9 µM)

CC[C@H](C)[C@H](NC(=O)[C@@H]1CCCN1C(=O)[C@H](CCCNC(=N)N)NC(=O)[C@H](CC(N)=O)NC(=O)[C@H](CC(N)=O)NC(=O)CN)C(=O)N[C@@H](Cc1ccc(O)cc1)C(=O)N[C@H](C(=O)N1CCC[C@H]1C(=O)N[C@@H](CCCNC(=N)N)C(=O)N1CCC[C@H]1C(=O)N[C@@H](CCCNC(=N)N)C(=O)N1CCC[C@H]1C(=O)N1CCC[C@H]1C(=O)N[C@@H](Cc1c[nH]cn1)C(=O)N1CCC[C@H]1C(=O)N[C@@H](CCCNC(=N)N)C(=O)N1CCC[C@H]1C(=O)N[C@H](C(=O)N[C@@H](CCCNC(=N)N)C(=O)N[C@H](C(=O)O)C(C)C)[C@@H](C)CC)[C@@H](C)CC [Api805] (H-GNNRPIYIPRPRPPHPRPIRV-OH; N-terminus assumed)
half-life time in lysate [8]: > 24 h | half-life (in vitro): > 24 h
